In patent US6858642B1, “Indole derivatives” (Neurim Pharmaceuticals (1991) Ltd., priority 1999, dated 2005):
Where two headings read alike, the source gives them in different places.

How the values were obtained:
[1] = tested on: adult castrated male rats; assay: Androgen-dependent regrowth of ventral prostate and seminal vesicles in castrated rats, compounds given orally in drinking water; assay type: in vivo, rat; details: for Dose dependence of the effect on prostate re-growth: 0.01 to 10 mg/l drinking water; for IC50: Rattus norvegicus, feed or water, read-out: IC50 on prostate re-growth; for Relative potency on testosterone-mediated prostate re-growth: comparison among compounds
From the text: The effects of orally administered compounds of the invention, MLP-76,77, 79 and 92, on androgen-dependent prostatal regrowth in adult castrated male rats was investigated Male rats (2.5 months old) were castrated under anesthesia and left to recover for 7 days. During this period, the average weight of the prostate decreased by approximately 75%. Beginning on day 7 after castration, the rats were given daily subcutaneous injections of either oil vehicle (control) or oil vehicle containing testosterone propionate (1 mg/kg body weight per day) for 4 days at 1 hour before lights off. […] In the morning following the last inject ion, the rats were sacrificed and the seminal vesicles and ventral prostates were removed and weighed.

[2] = Distribution of 125I-labelled compounds in organs of the adult male rat 1 h after ip injection; assay type: in vivo; details: retention pattern 1 h after ip injection
Procedure: The distribution of MLP-92 and MLP-77 in various organs of the rat was examined. 100 mcl saline containing 1×10^6 dpm ^125l-labelled compounds of the invention (labelling as described by Vakkuri et al., Acta Endocrinol., 106, 152-7, 1984) were injected (ip) to adult male rats. The rats were sacrificed 1 h after injection and various organs were dissected out and weighted. The contents of the radioactive derivatives in the rat organs (Brain, Hypothalamus, Pituitary, Eyes, Thyroid, Heart, Lungs, Kidneys. Spleen, Testis, Prostate and seminal vesicle) were determined using a gamma-counter and the results are presented as dpm/g organ wet-weight.

[3] = Scavenging activity on DPPH radicals (antioxidant effect); details: 10 μM addition; decrease in A517 of DPPH after 20 min at room temperature
Procedure: Radical scavenging activity was assayed in duplicates according to Blois, M. S., Nature, 1958, 181:1199. The reaction mixture contained 3 ml of 01 mM DPPH (in 95% ethanol) and 0.5 ml of the test compound. After 20 min. incubation at room temperature A517 was determined. The scavenging activity was measured as the decrease in A517 of the DPPH radical expressed as a percentage of the control value.

[4] = Table 2, 10 mg/l drinking water
[5] = Table 2, testosterone + compound 10 mg/l drinking water, 4 days
[6] = Table 3, 0.01 mg/l drinking water
[7] = Table 3, 0.1 mg/l drinking water
[8] = Table 3, testosterone + compound 0.01 mg/l drinking water
[9] = Table 3, testosterone + compound 0.1 mg/l drinking water
[10] = Table 2, testosterone propionate 1 mg/kg per day sc alone, 4 days
[11] = Table 3 (second group), testosterone propionate 1 mg/kg per day sc alone

| Molecule | A = % inhibition of testosterone-stimulated growth (prostate) [1, 4] | B = % inhibition of testosterone-stimulated growth (seminal vesicles) [1, 4] | Prostate (mg/g body weight) [1, 5] | Seminal Vesicles (mg/g body weight) [1, 5] | Accumulation in the prostate [2] | Relative ratio of scavenging activity compared with Vitamin E (tocopherol) [3] | other results |
| --- | --- | --- | --- | --- | --- | --- | --- |
| COc1ccc2[nH]cc(CCNC(C)=O)c2c1 [Melatonin, reference compound] | 44% | 30% | 0.55 ± 0.08 mg/g body weight | 1.88 ± 0.03 mg/g body weight | – | – | Dose dependence of the effect on prostate re-growth [1]: dose-dependent; IC50 ([1]; dose-dependent effect, compound in drinking water): 230 nM; A = % inhibition of testosterone-stimulated growth (prostate) [1, 6]: −15%; B = % inhibition of testosterone-stimulated growth (seminal vesicles) [1, 6]: 10%; A = % inhibition of testosterone-stimulated growth (prostate) [1, 7]: 31%; B = % inhibition of testosterone-stimulated growth (seminal vesicles) [1, 7]: 30%; Prostate (mg/g body weight) [1, 8]: 0.66 ± 0.08 mg/g body weight; Seminal Vesicles (mg/g body weight) [1, 8]: 1.81 ± 0.28 mg/g body weight; Prostate (mg/g body weight) [1, 9]: 0.54 ± 0.09 mg/g body weight; Seminal Vesicles (mg/g body weight) [1, 9]: 1.55 ± 0.24 mg/g body weight; Effect on testosterone-mediated re-growth of the ventral prostate gland ([1]; in the presence of testosterone (Table 2)): decreased significantly |
| COc1ccc2[nH]cc(CCNC(=O)c3ccccc3OC(C)=O)c2c1 [MLP-77] | 40% | −18% | 0.57 ± 0.05 mg/g body weight | 2.69 ± 0.49 mg/g body weight | selective accumulation | – | – |
| COc1ccc2[nH]cc(CCNC(=O)/C=C/c3ccc(O)c(O)c3)c2c1 [caffeic acid 5-methoxytryptamide, Caffeic Acid 5-Methoxytryptamide] | – | – | – | – | – | 3.2 | – |
| CCC(=O)O[C@H]1CC[C@H]2[C@@H]3CCC4=CC(=O)CC[C@]4(C)[C@H]3CC[C@]12C [Testosterone, testosterone propionate, reference compound] | – | – | – | – | – | – | Prostate (mg/g body weight) [1, 10]: 0.77 ± 0.02 mg/g body weight; Seminal Vesicles (mg/g body weight) [1, 10]: 2.38 ± 0.16 mg/g body weight; Prostate (mg/g body weight) [1, 11]: 0.62 ± 0.1 mg/g body weight; Seminal Vesicles (mg/g body weight) [1, 11]: 1.95 ± 0.24 mg/g body weight |
| tocopherol [Vitamin E (tocopherol)] | – | – | – | – | – | 1 | – |
| COc1ccc2[nH]cc(CCNC(=O)c3ccco3)c2c1 [MLP-76, 5-Methoxy-3-(2-(2-furamido)ethyl)indole] | 66% | 44% | 0.49 ± 0.09 mg/g body weight | 1.82 ± 0.25 mg/g body weight | – | – | Relative potency on testosterone-mediated prostate re-growth ([1]; Table 2): more potent then MLP-79, MLP-77 and melatonin |
| COc1ccc2[nH]cc(CCNCC3CCCO3)c2c1 (stereo not drawn) [MLP-92, 5-Methoxy-3-(2-(tetrahydro2-furylmethylamino)ethyl)indole] | 66% | 51% | 0.49 ± 0.04 mg/g body weight | 1.54 ± 0.21 mg/g body weight | selective accumulation | – | Dose dependence of the effect on prostate re-growth [1]: dose-dependent; IC50 [1]: 88 nM; A = % inhibition of testosterone-stimulated growth (prostate) [1, 6]: 19%; B = % inhibition of testosterone-stimulated growth (seminal vesicles) [1, 6]: 28%; A = % inhibition of testosterone-stimulated growth (prostate) [1, 7]: 62%; B = % inhibition of testosterone-stimulated growth (seminal vesicles) [1, 7]: 37%; Prostate (mg/g body weight) [1, 8]: 0.57 ± 0.04 mg/g body weight; Seminal Vesicles (mg/g body weight) [1, 8]: 1.57 ± 0.25 mg/g body weight; Prostate (mg/g body weight) [1, 9]: 0.46 ± 0.1 mg/g body weight; Seminal Vesicles (mg/g body weight) [1, 9]: 1.45 ± 0.13 mg/g body weight; Relative potency on testosterone-mediated prostate re-growth ([1]; Table 2): more potent then MLP-79, MLP-77 and melatonin |
| O=C(O)C=Cc1ccc(O)c(O)c1 [Caffeic acid, 3,4-Dihydroxycinnamic acid] | – | – | – | – | – | 2.8 | – |
| COc1ccc2[nH]cc(CCNC(=O)C3CCCO3)c2c1 (stereo not drawn) [MLP-79, 5-Methoxy-3-(2-(tetrahydro-2-furamido)ethyl)indole] | 54% | 23% | 0.50 ± 0.04 mg/g body weight | 2.00 ± 0.39 mg/g body weight | selective accumulation | – | – |
| O=C1O[C@H]([C@@H](O)CO)C(O)=C1O [Vitamin C (ascorbic acid), ascorbic acid] | – | – | – | – | – | 1 | – |
